These results are taken from patent publication US11046686B2, “Thiadiazole IRAK4 compounds” (Gilead Sciences, Inc., priority 2018, dated 2021).

This assay relates to TNFα. Kind of assay: IRAK4 Monocyte TNFα Cell Based Assay. Also noted: species or system human. Particulars: human monocytes. An outline of the steps:
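TNFα release quantified by HTRF (cryptate/XL665 antibody pair, overnight at RT) after 1 h compound pre-incubation (0.1% DMSO) and 4 h LPS challenge at 50 pg/ml, 37 °C, 5,000 monocytes per well. Signal ratio normalised between unstimulated (0%) and stimulated (100%) controls.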

Setting [1] is: second part of Table 2, compounds 33-343, unit inferred, read-out: EC50 MONO TNF HTRF.

SMILES strings stand for the structures. Like-named read-outs stand apart in the source and are kept apart here.

Take `CC(=O)N[C@@H]1[C@@H]2C[C@H]1CN(c1nnc(-c3cnc(-c4ccc5cc(C#N)cnn45)cc3N[C@H](C)C#N)s1)C2` [Example 174, N-((1R,5S,6S)-3-(5-(4-(((R)-1-cyanoethyl)amino)-6-(3-cyanopyrrolo[1,2-b]pyridazin-7-yl)pyridin-3-yl)-1,3,4-thiadiazol-2-yl)-3-azabicyclo[3.1.1]heptan-6-yl)acetamide]: under setting [1], the EC50 turned out to be 3.5 nM.

In the case of `CC(=O)N[C@H]1C[C@H](c2nnc(-c3cnc(-c4ccc5cc(C#N)cnn45)cc3NC3CCOCC3)s2)C1` [Example 201], under setting [1], the EC50 is 34.9 nM.

For the compound `COC(=O)N[C@H]1CCN(C(=O)c2nnc(-c3cnc(-c4ccc5cc(C#N)cnn45)cc3NC(C)C)s2)C1` [Example 43, methyl (S)-(1-(5-(6-(3-cyanopyrrolo[1,2-b]pyridazin-7-yl)-4-(isopropylamino)pyridin-3-yl)-1,3,4-thiadiazole-2-carbonyl)pyrrolidin-3-yl)carbarnate], the EC50 under setting [1] came out at 21.9 nM.

Turning to `CC(C)Nc1cc(-c2ccc3cc(C#N)cnn23)ncc1-c1nnc(C2CCC(C#N)CC2)s1` (centres unmarked) [Compound 333], under setting [1], the EC50 was 1000 nM.

For the compound `CC(=O)N[C@@H]1[C@@H]2CCC[C@H]1CN(c1nnc(-c3cnc(-c4ccc5cc(C#N)cnn45)cc3NC(C)C)s1)C2` [Example 166, N-((1R,5S,9s)-3-(5-(6-(3-cyanopyrrolo[1,2-b]pyridazin-7-yl)-4-(isopropylamino)pyridin-3-yl)-1,3,4-thiadiazol-2-yl)-3-azabicyclo[3.3.1]nonan-9-yl)acetamide], the EC50 under setting [1] was determined as 2.3 nM.

Turning to `CC1(Nc2cc(-c3ccc4cc(C#N)cnn34)ncc2-c2nnc(N3C[C@H]4CC[C@@H](C3)[C@@H]4NC(=O)C(C)(C)O)s2)COC1` [Example 210, N-((1R,5S,8s)-3-(5-(6-(3-cyanopyrrolo[1,2-b]pyridazin-7-yl)-4-((3-methyloxetan-3-yl)amino)pyridin-3-yl)-1,3,4-thiadiazol-2-yl)-3-azabicyclo[3.2.1]octan-8-yl)-2-hydroxy-2-methylpropanamide], under setting [1], the EC50 turned out to be 2.8 nM.

Consider `CC(C)Nc1cc(-c2ccc3cc(C#N)cnn23)ncc1-c1nnc(N2C[C@H]3CC[C@@H](C2)[C@@H]3NC(=O)[C@H]2C[C@@](C)(O)C2)s1` [Example 93, (1s,3S)-N-((1R,5S,8s)-3-(5-(6-(3-cyanopyrrolo[1,2-b]pyridazin-7-yl)-4-(isopropylamino)pyridin-3-yl)-1,3,4-thiadiazol-2-yl)-3-azabicyclo[3.2.1]octan-8-yl)-3-hydroxy-3-methylcyclobutane-1-carboxamide], for which the concentration giving a half-maximal response (EC50) under setting [1] was determined as 5.9 nM.

For the compound `CC(C)Nc1cc(-c2ccc3cc(C#N)cnn23)ncc1-c1nnc(C2CCOCC2)s1` [Example 32], the EC50 (LPS stimulated, compounds 1-32, read-out: EC50 TNF) turned out to be 211 nM.

Take `CNc1cc(-c2ccc3cc(C#N)cnn23)ncc1-c1nnc(N2C[C@H]3C[C@@H](C2)[C@@H]3NC(C)=O)s1` [Example 176, N-((1R,5S,6s)-3-(5-(6-(3-cyanopyrrolo[1,2-b]pyridazin-7-yl)-4-(methylamino)pyridin-3-yl)-1,3,4-thiadiazol-2-yl)-3-azabicyclo[3.1.1]heptan-6-yl)acetamide]: under setting [1], the EC50 is 23.5 nM.

On to `CC(=O)N[C@@H]1[C@@H]2C[C@H]1CN(c1nnc(-c3cnc(-c4ccc5cc(C#N)cnn45)cc3NC(C)C)s1)C2` [Example 173, N-((1R,5S,6s)-3-(5-(6-(3-cyanopyrrolo[1,2-b]pyridazin-7-yl)-4-(isopropylamino)pyridin-3-yl)-1,3,4-thiadiazol-2-yl)-3-azabicyclo[3.1.1]heptan-6-yl)acetamide], for which the EC50 under setting [1] came out at 11.6 nM.

As for `CC(=O)N[C@H]1CC[C@H](c2nnc(-c3cnc(-c4ccc5cc(C#N)cnn45)cc3NC(C)C)s2)CC1` [Example 24, N-((1r,4r)-4-(5-(6-(3-cyanopyrrolo[1,2-b]pyridazin-7-yl)-4-(isopropylamino)pyridin-3-yl)-1,3,4-thiadiazol-2-yl)cyclohexyl)acetamide], the EC50 (Homo sapiens, Monocyte, LPS stimulated, compounds 1-32, read-out: EC50 TNF) was 14 nM.

On to `CC(C)Nc1cc(-c2ccc3cc(C#N)cnn23)ncc1-c1nnc(C(=O)N2CCC[C@H]2CO)s1` [Example 217], for which the EC50 under setting [1] is 11.1 nM.

Take `CC(C)Nc1cc(-c2ccc3cc(C#N)cnn23)ncc1-c1nnc(N2CC3(CCC(C)(O)CC3)C2)s1` [Example 82, 7-(5-(5-(7-hydroxy-7-methyl-2-azaspiro[3.5]nonan-2-yl)-1,3,4-thiadiazo1-2-yl)-4-(isopropylamino)pyridin-2-yl)pyrrolo[1,2-b]pyridazine-3-carbonitrile]: the EC50 under setting [1] came to 23.1 nM.

As to `CC(=O)N[C@@H]1C[C@H]2CC[C@@H](C1)N2c1nnc(-c2cnc(-c3ccc4cc(C#N)cnn34)cc2NC(C)C)s1` [Example 56, N-((1R,3s,5S)-8-(5-(6-(3-cyanopyrrolo[1,2-b]pyridazin-7-yl)-4-(isopropylamino)pyridin-3-yl)-1,3,4-thiadiazol-2-yl)-8-azabicyclo[3.2.1]octan-3-yl)acetamide], the EC50 under setting [1] stood at 8.3 nM.

For the compound `CC(C)Nc1cc(-c2ccc3cc(C#N)cnn23)ncc1-c1nnc(N2CC(N3CCC(F)(F)C3)C2)s1` [Compound 328], the EC50 under setting [1] amounted to 80.5 nM.

In the case of `CC(=O)N1C[C@@H]2C[C@H]1CN2c1nnc(-c2cnc(-c3ccc4cc(C#N)cnn34)cc2NC(C)C)s1` [Example 302, 7-(5-(5-((1S,4S)-5-acety1-2,5-diazabicyclo[2.2.1]heptan-2-yl)-1,3,4-thiadiazol-2-yl)-4-(isopropylamino)pyridin-2-yl)pyrrolo[1,2-b]pyridazine-3-carbonitrile], under setting [1], the half-maximal effective concentration (EC50) is 5.3 nM.

For the compound `CC(=O)N[C@@H]1[C@@H]2CC[C@H]1CN(c1nnc(-c3cnc(-c4ccc5cc(C#N)cnn45)cc3NC3(C)CCOCC3)s1)C2` [Compound 272, N-((1R,5S,8s)-3-(5-(6-(3-cyanopyrrolo[1,2-b]pyridazin-7-yl)-4-((4-methyltetrahydro-2H-pyran-4-yl)amino)pyridin-3-yl)-1,3,4-thiadiazol-2-yl)-3-azabicyclo[3.2.1]octan-8-yl)acetamide], the EC50 under setting [1] was 4.1 nM.

Regarding `CC1(O)CCC(c2nnc(-c3cnc(-c4ccc5cc(C#N)cnn45)cc3NC3COC3)s2)CC1` (single isomer, unassigned) [Example 206, 7-(5-(5-(4-hydroxy-4-methylcyclohexyl)-1,3,4-thiadiazol-2-yl)-4-(oxetan-3-ylamino)pyridin-2-yl)pyrrolo[1,2-b]pyridazine-3-carbonitrile], the EC50 (Homo sapiens, Monocyte, second part of Table 2, compounds 33-343, unit inferred, read-out: EC50 MONO TNF HTRF) came to 13.9 nM.

With `CC(C)(O)C(=O)NC12CCC(c3nnc(-c4cnc(-c5ccc6cc(C#N)cnn56)cc4NC4COC4)s3)(C1)C2` [Compound 335], under setting [1], the EC50 amounted to 48.9 nM.

Regarding `CC(=O)NC1CCC(F)(c2nnc(-c3cnc(-c4ccc5cc(C#N)cnn45)cc3NC3COC3)s2)CC1` (single isomer, unassigned) [Example 196, N-(4-(5-(6-(3-cyanopyrrolo[1,2-b]pyridazin-7-yl)-4-(oxetan-3-ylamino)pyridin-3-yl)-1,3,4-thiadiazol-2-yl)-4-fluorocyclohexy)acetamide], the EC50 under setting [1] came to 107 nM.

`CC1(Nc2cc(-c3ccc4cc(C#N)cnn34)ncc2-c2nnc(N3C[C@H]4CC[C@@H](C3)[C@@H]4NC(=O)CN=S(C)(C)=O)s2)COC1` [Example 109, N-((1R,5S,8s)-3-(5-(6-(3-cyanopyrrolo[1,2-b]pyridazin-7-yl)-4-((3-methyloxetan-3-yl)amino)pyridin-3-yl)-1,3,4-thiadiazol-2-yl)-3-azabicyclo[3.2.1]octan-8-yl)-2-((dimethyl(oxo)-16-sulfanylidene)amino)acetamide]: the EC50 under setting [1] was 4.1 nM.

For `CC(C)Nc1cc(-c2ccc3cc(C#N)cnn23)ncc1-c1nnc(N2CCC[C@H]2CO)s1` [Compound 329], the EC50 under setting [1] was determined as 54.2 nM.

`CC(=O)N[C@@H]1[C@@H]2CC[C@H]1CN(c1nnc(-c3cnc(-c4ccc5cc(C#N)cnn45)cc3NC3(C)COC3)s1)C2` [Example 144, N-((1R,5S,8s)-3-(5-(6-(3-cyanopyrrolo[1,2-b]pyridazin-7-yl)-4-((3-methyloxetan-3-yl)amino)pyridin-3-yl)-1,3,4-thiadiazo1-2-yl)-3-azabicyclo[3.2.1]octan-8-yl)acetamide]: the half-maximal effective concentration (EC50) under setting [1] amounted to 2.3 nM.

In the case of `CC(C)Nc1cc(-c2ccc3cc(C#N)cnn23)ncc1-c1nnc(C(=O)N[C@H]2C[C@@](C)(O)C2)s1` [Example 218, 5-(6-(3-cyanopyrrolo[1,2-b]pyridazin-7-yl)-4-(isopropylamino)pyridin-3-yl)-N-((1s,3s)-3-hydroxy-3-methylcyclobutyl)-1,3,4-thiadiazole-2-carboxamide], the EC50 under setting [1] came out at 858 nM.

Consider `N#Cc1cnn2c(-c3cc(NC4CCOCC4)c(-c4nnc([C@H]5CC[C@H](NC(=O)C6CC6)CC5)s4)cn3)ccc2c1` [Example 156, N-((1r,4r)-4-(5-(6-(3-cyanopyrrolo[1,2-b]pyridazin-7-yl)-4-((tetrahydro-2H-pyran-4-yl)amino)pyridin-3-yl)-1,3,4-thiadiazol-2-yl)cyclohexyl)cyclopropanecarboxamide], for which the EC50 under setting [1] is 10.9 nM.

Consider `CC(C)Nc1cc(-c2ccc3cc(C#N)cnn23)ncc1-c1nnc(C2CCOC2)s1` (centres unmarked) [Compound 322], for which the EC50 under setting [1] worked out at 419 nM.

Take `CC(=O)N(C)[C@@H]1[C@@H]2CC[C@H]1CN(c1nnc(-c3cnc(-c4ccc5cc(C#N)cnn45)cc3NC(C)C)s1)C2` [Example 300]: the EC50 under setting [1] was determined as 5.3 nM.

For `CC(=O)NC1CCC(c2nnc(-c3cnc(-c4ccc5cc(C#N)cnn45)cc3NC34CCC(O)(CC3)CC4)s2)CC1` (centres unmarked) [Compound 241, N-((1r,4r)-4-(5-(6-(3-cyanopyrrolo[1,2-b]pyridazin-7-yl)-4-((4-hydroxybicyclo[2.2.2]octan-1-yl)amino)pyridin-3-yl)-1,3,4-thiadiazol-2-yl)cyclohexyl)acetamide], the EC50 under setting [1] turned out to be 4.8 nM.

In the case of `CC(C)Nc1cc(-c2ccc3cc(C#N)cnn23)ncc1-c1nnc(C(=O)N[C@H]2CC[C@H](O)CC2)s1` [Example 220, 5-(6-(3-cyanopyrrolo[1,2-b]pyridazin-7-yl)-4-(isopropylamino)pyridin-3-yl)-N-((1r,4r)-4-hydroxycyclohexyl)-1,3,4-thiadiazole-2-carboxamide], the EC50 under setting [1] was determined as 131 nM.

As a reminder, the EC50 is the concentration that produces a half-maximal response.
